Source: patent publication US20220143222A1, “SUBCUTANEOUS AND INTRAMUSCULAR ADMINISTRATION OF PYRAZINE COMPOUNDS” (MediBeacon Inc., priority 2020, published 2022)
Like-named read-outs stand apart in the source and are kept apart here.

Tests used:
[1] = MB-102 pig plasma concentration after subcutaneous dosing; type: in vivo; settings: 3.2 mpk; for concentration at 15 min / concentration at 30 min / concentration at 45 min / concentration at 60 min / concentration at 75 min / concentration at 90 min / concentration at 105 min / concentration at 120 min / concentration at 135 min / concentration at 150 min / concentration at 165 min / concentration at 180 min / concentration at 195 min / concentration at 210 min / concentration at 225 min / concentration at 240 min / concentration at 255 min / concentration at 270 min / concentration at 285 min / concentration at 300 min / concentration at 315 min / concentration at 330 min / concentration at 345 min / concentration at 360 min: Yorkshire, pig, plasma, subcutaneous, 3.2 mg/kg, read-out: MB-102 Pig Plasma Conc.; for SUM (plasma conc. over time): 15-360 min
Description: Juvenile Yorkshire pigs weighing approximately 25 kg were anesthetized, their body temperature stabilized, and an IV port surgically placed. A region approximately half-way along the line between the hip and knee joint was selected as the injection site and prepared by cleaning the skin and removing any exposed hair by shaving the selected area at least twice. Similarly, the site where two Quantum Leap fluorescent sensors (disclosed in U.S. Pat. No. 10,548,521) were to be positioned (chest) was prepared by washing and shaving. After the skin was dry the sensors were attached with commercially available skin adhesive and background skin auto-fluorescence measurements were recorded. After about 20 minutes of background fluorescence collection the subject animal was dosed either intravenously (animal 48019) or subcutaneously (animals 52771, 53701 09802, or 1539) or intramuscularly (09801) with PBS-1× formulated MB-102 at 3.2 mg/kg. Injection of the appropriate volume took place over about a minute. […] At this point glomerular elimination of MB-102 by the kidneys led to a decrease of fluorescence signal over time. Blood samples (1.5 mL) were taken immediately prior to the introduction of MB-102 (0 minutes) and at 15 minute intervals throughout the procedure. Blood was collected in BD vacutainer K2EDTA tubes, spun to plasma and stored at −80° C. until analyzed. Subsequently, the processed plasma samples were thawed, diluted with PBS-1× and analyzed by HPLC or UPLC and the concentration of MB-102 determined using standard analytical techniques. Further details for each animal are provided in the examples that follow.
A sterile Mesoderm needle pack was obtained. The needle array featured five (5), 4 mm×30 gauge (0.30 mm dia) luer-hub needles arranged four (4) in a circular, symmetrical pattern (30 mm diameter) about a central needle and were attached via a distribution channel and a second luer-hub to a primary source syringe (3 mL in total deliverable volume). MB-102 API was formulated as 60 mg/mL of sodium salt in 1×PBS and placed in 5 mL serum cap vials. Immediately prior to dosing, the primary syringe was filled with a slight excess of the required amount of formulated MB-102 to achieve 3.2 mg/kg and the needle cap replaced until the subject animal and fluorescence monitor were ready for the experiment to begin and the injection initiated. Subject pig 52771 was dosed with 1.2 mL of MB-102 formulated in PBS-1× (3.2 mg/kg). […] Subject animal fluorescence was obtained during the entire course of the experiment (8 hrs) and blood samples were collected every 15 minutes, processed and stored at −80° C. Comparison of IV MB-102 plasma concentration versus time and subcutaneous MB-102 (both at 3.2 mg/kg dose) plasma concentration versus time are shown in FIG. 1.
Experimental animal Yorkshire pig, 53701, was subject to subcutaneous (subQ) administration of MB-102 as described in Example 8. […] Plasma sampling was conducted as described in Example 8 and the results (Table 1) are plotted in FIG. 1.
Experimental animal Yorkshire pig, 09802, was subject to subcutaneous (subQ) administration of MB-102 using a single needle in the same protocol as Example 8 but substituting a 2 mL syringe equipped with a single 4 mm×30 g needle. […] Plasma sampling was conducted as described in Example 8 and the results (Table 1) are plotted in FIG. 1.

[2] = Storage of concentrated MB-102 salt solution at 4° C. (precipitation); type: physicochemical; settings: sodium salt, 300 mg per mL water (w/v), 4° C. overnight
Description: MB-102 (0.300 g, 0.81 mmol), was placed in a vial (4.0 mL). Water was added (0.8 mL, D.I.) and the mixture sonicated for a brief period of time. To the mixture was added aqueous 6.25 N NaOH (2 equivalents, 1.62 mmol, 0.24 mL, added in portions; 0.020 mL×12 to effect solution) with stirring and brief periods of sonication. […] The final concentration was 300 mg (2R,2′R)-2,2′-((3,6-diaminopyrazine-2,5-dicarbonyl)bis(azanediyl))bis(3-hydroxypropanoic acid), MB-102 per mL water (w/v).
MB-102 (0.30 g, 0.81 mmol) was weighed into a 5 mL v-vial equipped with a Teflon-covered magnetic spin vane. Choline hydroxide in water (Aldrich, 0.43 g of 46 wt %, 1.62 mmol) was added portion-wise with stirring until a solution was obtained. The total weight of the solution was 0.73 g or 64.2 wt % MB-102 di-choline salt (MW: 578.6).

- concentration at 15 min ([1]; pig 09802, SubQ): 6670 ng/mL
- concentration at 30 min ([1]; pig 09802, SubQ): 7530 ng/mL
- concentration at 45 min ([1]; pig 09802, SubQ): 6850 ng/mL
- concentration at 60 min ([1]; pig 09802, SubQ): 6540 ng/mL
- concentration at 75 min ([1]; pig 09802, SubQ): 5490 ng/mL
- concentration at 90 min ([1]; pig 09802, SubQ): 5260 ng/mL
- concentration at 105 min ([1]; pig 09802, SubQ): 4810 ng/mL
- concentration at 120 min ([1]; pig 09802, SubQ): 4410 ng/mL
- concentration at 135 min ([1]; pig 09802, SubQ): 3900 ng/mL
- concentration at 150 min ([1]; pig 09802, SubQ): 3710 ng/mL
- concentration at 165 min ([1]; pig 09802, SubQ): 3500 ng/mL
- concentration at 180 min ([1]; pig 09802, SubQ): 3070 ng/mL
- concentration at 195 min ([1]; pig 09802, SubQ): 2720 ng/mL
- concentration at 210 min ([1]; pig 09802, SubQ): 2500 ng/mL
- concentration at 225 min ([1]; pig 09802, SubQ): 2200 ng/mL
- concentration at 240 min ([1]; pig 09802, SubQ): 1990 ng/mL
- concentration at 255 min ([1]; pig 09802, SubQ): 1730 ng/mL
- concentration at 270 min ([1]; pig 09802, SubQ): 1600 ng/mL
- concentration at 285 min ([1]; pig 09802, SubQ): 1430 ng/mL
- concentration at 300 min ([1]; pig 09802, SubQ): 1300 ng/mL
- concentration at 315 min ([1]; pig 09802, SubQ): 1180 ng/mL
- concentration at 330 min ([1]; pig 09802, SubQ): 1030 ng/mL
- concentration at 345 min ([1]; pig 09802, SubQ): 914 ng/mL
- concentration at 360 min ([1]; pig 09802, SubQ): 829 ng/mL
- concentration at 15 min ([1]; pig 52771, SubQ): 6130 ng/mL
- concentration at 30 min ([1]; pig 52771, SubQ): 8510 ng/mL
- concentration at 45 min ([1]; pig 52771, SubQ): 8790 ng/mL
- concentration at 60 min ([1]; pig 52771, SubQ): 8840 ng/mL
- concentration at 75 min ([1]; pig 52771, SubQ): 7840 ng/mL
- concentration at 90 min ([1]; pig 52771, SubQ): 6920 ng/mL
- concentration at 105 min ([1]; pig 52771, SubQ): 6070 ng/mL
- concentration at 120 min ([1]; pig 52771, SubQ): 5560 ng/mL
- concentration at 135 min ([1]; pig 52771, SubQ): 5000 ng/mL
- concentration at 150 min ([1]; pig 52771, SubQ): 4400 ng/mL
- concentration at 165 min ([1]; pig 52771, SubQ): 3950 ng/mL
- concentration at 180 min ([1]; pig 52771, SubQ): 3480 ng/mL
- concentration at 195 min ([1]; pig 52771, SubQ): 3190 ng/mL
- concentration at 210 min ([1]; pig 52771, SubQ): 2830 ng/mL
- concentration at 225 min ([1]; pig 52771, SubQ): 2500 ng/mL
- concentration at 240 min ([1]; pig 52771, SubQ): 2240 ng/mL
- concentration at 255 min ([1]; pig 52771, SubQ): 2000 ng/mL
- concentration at 270 min ([1]; pig 52771, SubQ): 1760 ng/mL
- concentration at 285 min ([1]; pig 52771, SubQ): 1630 ng/mL
- concentration at 330 min ([1]; pig 52771, SubQ): 1210 ng/mL
- concentration at 345 min ([1]; pig 52771, SubQ): 1140 ng/mL
- concentration at 360 min ([1]; pig 52771, SubQ): 1000 ng/mL
- concentration at 15 min ([1]; pig 53701, SubQ): 8110 ng/mL
- concentration at 30 min ([1]; pig 53701, SubQ): 7410 ng/mL
- concentration at 45 min ([1]; pig 53701, SubQ): 6620 ng/mL
- concentration at 60 min ([1]; pig 53701, SubQ): 5940 ng/mL
- concentration at 75 min ([1]; pig 53701, SubQ): 5260 ng/mL
- concentration at 90 min ([1]; pig 53701, SubQ): 4720 ng/mL
- concentration at 105 min ([1]; pig 53701, SubQ): 4230 ng/mL
- concentration at 120 min ([1]; pig 53701, SubQ): 3670 ng/mL
- concentration at 135 min ([1]; pig 53701, SubQ): 3250 ng/mL
- concentration at 150 min ([1]; pig 53701, SubQ): 3000 ng/mL
- concentration at 165 min ([1]; pig 53701, SubQ): 2640 ng/mL
- concentration at 180 min ([1]; pig 53701, SubQ): 2390 ng/mL
- concentration at 195 min ([1]; pig 53701, SubQ): 2170 ng/mL
- concentration at 210 min ([1]; pig 53701, SubQ): 1940 ng/mL
- concentration at 225 min ([1]; pig 53701, SubQ): 1670 ng/mL
- concentration at 240 min ([1]; pig 53701, SubQ): 1510 ng/mL
- concentration at 255 min ([1]; pig 53701, SubQ): 1350 ng/mL
- concentration at 270 min ([1]; pig 53701, SubQ): 1220 ng/mL
- concentration at 285 min ([1]; pig 53701, SubQ): 1090 ng/mL
- concentration at 300 min ([1]; pig 53701, SubQ): 987 ng/mL
- concentration at 315 min ([1]; pig 53701, SubQ): 867 ng/mL
- concentration at 330 min ([1]; pig 53701, SubQ): 800 ng/mL
- concentration at 345 min ([1]; pig 53701, SubQ): 704 ng/mL
- concentration at 360 min ([1]; pig 53701, SubQ): 631 ng/mL
- SUM (plasma conc. over time) ([1]; pig 09802, SubQ): 1,210,924 ng/mL*min
- SUM (plasma conc. over time) ([1]; pig 52771, SubQ): 1,413,823 ng/mL*min
- SUM (plasma conc. over time) ([1]; pig 53701, SubQ): 1,077,956 ng/mL*min
- precipitate formation on storage [2]: no precipitate formation
SMILES: Nc1nc(C(=O)N[C@H](CO)C(=O)O)c(N)nc1C(=O)N[C@H](CO)C(=O)O [MB-102, 3,6-diamino-2,5-bis{N-[(1R)-1-carboxy-2-hydroxyethyl]carbamoyl}pyrazine]
